According to the supplement of paper PMC10307832:

Assays:
Test in all cases: relative viability (nuclei count vs DMSO), 5 days (fraction); higher = more cells survive
[1] = compound: C(C(=O)C(=O)O)Br [Bromopyruvate] + Cc1nc(Nc2ncc(C(=O)Nc3c(C)cccc3Cl)s2)cc(N2CCN(CCO)CC2)n1 [Dasatinib] (partner 0.075 µM)
Method in brief: (§1)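 Dosing by pin tool came one day after lung cancer cell lines were seeded in 1536-well plates, using either one drug or a fixed anchor-drug dose plus five library-drug doses (not always all listed) in √10 steps. After 5 days, nuclei were counted on 4× images. Relative viability is treated-well nuclei count divided by vehicle-well nuclei count, and values are medians of duplicate plates.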

[2] = compound: CC(O)(CS(=O)(=O)c1ccc(F)cc1)C(=O)Nc1ccc(C#N)c(C(F)(F)F)c1 [Bicalutamide] + CC(C)C[C@H](NC(=O)[C@H](Cc1ccccc1)NC(=O)c1cnccn1)B(O)O [Bortezomib] (partner 0.002 µM)
Method in brief: as §1

[3] = compound: CC(O)(CS(=O)(=O)c1ccc(F)cc1)C(=O)Nc1ccc(C#N)c(C(F)(F)F)c1 [Bicalutamide] + Cc1cc(Nc2cc(N3CCN(C)CC3)nc(Sc3ccc(NC(=O)C4CC4)cc3)n2)n[nH]1 [Tozasertib] (partner 0.1 µM)
Method in brief: as §1

[4] = compound: CC(O)(CS(=O)(=O)c1ccc(F)cc1)C(=O)Nc1ccc(C#N)c(C(F)(F)F)c1 [Bicalutamide] + Nc1nc2[nH]cc(CCc3ccc(C(=O)N[C@@H](CCC(=O)O)C(=O)O)cc3)c2c(=O)[nH]1 [Pemetrexed] (partner 0.2 µM)
Method in brief: as §1

Row | Cell Line | relative viability ([1]; first compound 1 µM) | relative viability ([1]; first compound 3.162 µM) | relative viability ([1]; first compound 10 µM) | relative viability ([1]; first compound 31.62 µM) | relative viability ([1]; first compound 100 µM) | relative viability ([2]; first compound 0.08 µM) | relative viability ([2]; first compound 0.253 µM) | relative viability ([2]; first compound 0.8 µM) | relative viability ([2]; first compound 2.53 µM) | relative viability ([3]; first compound 0.08 µM) | relative viability ([3]; first compound 0.253 µM) | relative viability ([3]; first compound 0.8 µM) | relative viability ([3]; first compound 2.53 µM) | relative viability ([4]; first compound 0.08 µM) | relative viability ([4]; first compound 0.253 µM) | relative viability ([4]; first compound 0.8 µM) | relative viability ([4]; first compound 2.53 µM)
1 | NCI-H1915 | 0.331 | 0.326 | 0.319 | 0.275 | 0.315 | 0.962 | 0.944 | 1.11 | 0.909 | 0.434 | 0.447 | 0.491 | 0.381 | 0.509 | 0.516 | 0.481 | 0.48
2 | NCI-H1975 | 0.369 | 0.4 | 0.349 | 0.442 | 0.344 | 0.314 | 0.296 | 0.417 | 0.372 | 0.785 | 0.711 | 0.745 | 0.514 | 0.316 | 0.311 | 0.299 | 0.306
3 | NCI-H1993 | 0.826 | 0.766 | 0.841 | 0.652 | 0.617 | – | 0.897 | 1.31 | 1.12 | 0.567 | 0.581 | 0.727 | 0.629 | 0.66 | 0.669 | 0.557 | 0.597
4 | NCI-H2009 | 0.281 | 0.297 | 0.279 | 0.243 | 0.202 | 1.26 | 1.03 | 1.16 | 0.88 | 0.777 | 0.664 | 0.723 | 0.649 | 1.13 | 1.04 | 1.11 | 0.91
5 | NCI-H2023 | 0.398 | 0.566 | 0.661 | 0.573 | 0.562 | 1.09 | 0.932 | 1.11 | 0.8 | 0.448 | 0.376 | 0.306 | 0.249 | 0.267 | 0.175 | 0.279 | 0.223
6 | NCI-H2085 | 0.246 | 0.243 | 0.234 | 0.263 | 0.284 | 1.14 | 0.944 | 1.08 | 0.996 | 0.913 | 0.81 | 0.805 | 0.804 | 0.837 | 0.708 | 0.912 | 0.775
7 | NCI-H2087 | 0.807 | 1 | 0.914 | 0.745 | 0.824 | 0.785 | 0.825 | 1.04 | 0.75 | 0.234 | 0.226 | 0.262 | 0.219 | 0.684 | 0.662 | 0.695 | 0.613
8 | NCI-H2126 | 0.659 | 0.594 | 0.611 | 0.622 | 0.587 | 1.12 | 1.09 | 1.08 | 1.06 | 0.939 | 0.811 | 0.944 | 0.75 | 0.675 | 0.597 | 0.785 | 0.638
9 | NCI-H2228 | 0.464 | 0.532 | 0.52 | 0.455 | 0.633 | 1.07 | 1.11 | 1.31 | 1.11 | 0.208 | 0.349 | 0.202 | 0.253 | 0.343 | 0.351 | 0.334 | 0.323
10 | NCI-H2347 | 0.331 | 0.297 | 0.322 | 0.292 | 0.278 | 1.21 | 0.989 | 1.4 | 0.903 | 0.625 | 0.511 | 0.597 | 0.504 | 0.463 | 0.444 | 0.453 | 0.445
11 | NCI-H2405 | 0.242 | 0.218 | 0.209 | 0.19 | 0.231 | 1.02 | 1.01 | 1.05 | 0.986 | 0.876 | 0.691 | 0.715 | 0.656 | 1.07 | 1.01 | 1.35 | 1.04
12 | NCI-H3122 | 0.936 | 0.871 | 1.22 | 0.765 | 0.882 | 1.03 | 1.03 | 0.988 | 1.03 | 0.422 | 0.408 | 0.445 | 0.44 | 0.202 | 0.193 | 0.197 | 0.199
13 | PC-3 [JPC-3] | 1.06 | 1.03 | 1.06 | 1.02 | 1.1 | 0.808 | 0.909 | 0.908 | 0.818 | 0.926 | 0.903 | 0.952 | 0.893 | 1.08 | 1.11 | 1.41 | 1.12
14 | PC-14 | 0.307 | 0.328 | 0.284 | 0.272 | 0.191 | 0.923 | 0.974 | 0.827 | 0.89 | 0.643 | 0.616 | 0.744 | 0.588 | 0.121 | 0.121 | 0.119 | 0.117
15 | RERF-LC-KJ | 0.882 | 0.797 | 1.04 | 0.878 | 0.73 | 1.24 | 0.951 | 1.23 | 1.07 | 0.48 | 0.521 | 0.494 | 0.338 | 0.471 | 0.457 | 0.517 | 0.492
16 | SK-LU-1 | 0.171 | 0.153 | 0.19 | 0.171 | 0.165 | 1.33 | 1.37 | 1.89 | 1.09 | 0.341 | 0.291 | 0.295 | 0.319 | 1.03 | 1.02 | 1.19 | 0.928
17 | SW 1573 | 0.598 | 0.684 | 0.492 | 0.276 | 0.0416 | 1.05 | 0.842 | 1.25 | 0.912 | 0.205 | – | 0.231 | 0.135 | 0.952 | 0.749 | 1.02 | 0.819
